Patent publication US10206988B2, “Xenoantigen-displaying anti-cancer vaccines and method of making” (The University of Toledo, priority 2012, dated 2019)

Assays:
female BALB/c mice [1] = test: Comparison of anti-Rha antibody titers and isotypes generated against Rha-Ficoll and Rha-OVA (screening against Rha-BSA); assay type: in vivo; conditions: isotype distribution, sera screened against Rha-BSA
Experimental: (§1) 96 well plates (Immulon 4 HBX) were coated with Rha-BSA conjugate (6) (2 μg/mL) in 0.01 M PBS and incubated overnight at 4° C. The plates were washed 5 times with PBS containing 0.1% Tween-20. Blocking was achieved by incubating the plates for 1 h at room temperature with BSA in 0.01 M PBS (1 mg/mL). The plates were then washed 5 times and incubated for 1 h with serum dilutions in PBS. Unbound antibody in the serum was removed by washing and the plates were incubated for 1 h at room temperature with Horseradish Peroxidase (HRP) goat anti-mouse IgG+IgM (Jackson Immunoresearch Laboratories) diluted 5000 times in PBS/BSA. The plates were washed with TMB (3,3′,5,5′-tetramethylbenzidine). One component HRP microwell substrate (Bio FX, Owings Mills, Md.) was added and allowed to react for 10 mins. Absorbances were recorded at 620 nm and were plotted against log10 [1/serum dilution].
Two groups of five female BALB/c mice each were immunized on day 0 with Rha-Ficoll/Alum adjuvant (group A) or Rha-OVA/complete Freund's adjuvant (CFA) (group B). The mice were boosted three more times on days 14, 28, and 42 with either Rha-Ficoll/Alum (group A) or rha-OVA/incomplete Freund's adjuvant (ICF) (group B). Sera were collected separately from groups A and B after the third boost and the anti-Rha antibodies in the sera from the two groups of mice were isotyped by screening against Rha-BSA. […]

female BALB/c mice [2] = test: Anti-Rha antibody generation with Rha-Ficoll/Alum (ELISA against Rha-BSA); assay type: in vivo; conditions: day 66 sera
Experimental: The 20 female BALB/c mice used for this study were divided into four groups A1, A2, B1, and B2, containing 5 mice each. Groups A1 and B1 served as the control groups and were not immunized. Groups A2 and B2 were injected subcutaneously (day 0) with a 100 μL subcutaneous injections Rha-Ficoll/Alum on days 14, 28, 42, and 56 (100 μg of Rha-Ficoll per mouse, each boost). The mice in each group A1, A2, B1, and B2 were bled on day 66 and the collected sera were tested for anti-Rha antibodies.
as §1, with “dilution]. […]” for “dilution].”

U266 cells = test: Tumor cell staining (FACS); assay type: cell-based, human; conditions: 0.5 μg antibody, FITC goat anti-mouse IgG+IgM
Experimental: U266 cells (American Type Culture Collection, Manassas, Va.), were cultured in RPMI 1640 with 15% fetal calf serum (FCS). Cells were stained with purified mouse anti-human MUC1 antibodies (CD227, 0.5 μg), non-immune BALB/c mice serum (1/5 dilution) and group B2 mice serum (1/5 dilution). The cells were then stained with FITC-conjugated goat anti-mouse IgG+IgM (0.5 μg) and fluorescence was quantified with a BD FACS Calibur.
These cells express MUC1 on their surface as shown by binding with mouse anti-human MUC1 antibodies (CD 227).

2-Aminoethyl-α-L-Rhamnopyranoside-Ficoll Conjugate [Rha-Ficoll]
IgG3 share of anti-Rha antibodies (female BALB/c mice [1]): 48%
IgM share of anti-Rha antibodies (female BALB/c mice [1]): 25%
anti-Rha antibody titers in groups A2 and B2 relative to control groups (female BALB/c mice [2]): 25 fold

CD 227: purified mouse anti-human CD227 (anti-human MUC1) from BD-biosciences
binding to MUC1 on U266 human leukemia cells (U266 cells): binding
